Data reported in US20090233906A1, “IMIDAZOAZEPINONE COMPOUNDS” (priority 2006, published 2009).

Test system: human T-bet
Experiment: HEKT-bet-luc assay (normalized)
Type: cell-based
Conditions: Homo sapiens, HEK293, 24 h, normalized HEKT-bet-luc IC50; engineered HEK cells, T-box responsive luciferase reporter, compound 24 hours; normalized to reference ER-819544; read-out: IC50
Method: HEKT-bet-luc assay: This assay measures a T-bet dependent reporter (luciferase) activity in engineered HEK cells that express a human T-bet and a T-box responsive element driving luciferase reporter. HEKT-bet cells were plated at 2×10^4/well in 96-well plate and compound was added into cell culture for 24 hours. Luciferase activity was measured by adding 50 μl of Steady-Glo reagent (Promega) and samples were read in Victor V reader (PerkinElmer). The activity of compound was determined by comparing compound treated samples to non-compound treated vehicle controls. The IC50 values were calculated utilizing a maximum value corresponding to the amount of luciferase in the absence of a test compound and a minimum value corresponding to a test compound value obtained at maximum inhibition.
Determination of Normalized HEKT-bet IC50 values: Compounds were assayed in microtiter plates. Each plate included a reference compound which was ER-819544. The un-normalized IC50 value for a particular compound was divided by the IC50 value determined for the reference compound in the same microtiter plate to provide a relative potency value. The relative potency value was then multiplied by the established potency of the reference compound to provide the normalized HEKT-bet IC50 value. […] The IC50 values provided herein were obtained using this normalization method.

`CCN1C(=O)N2Cc3cc(OC)cc(OC)c3C(C)C=C2C12CCN(Cc1cccc3cccnc13)CC2` (stereo not drawn) [compound 819594] and `CCN1C(=O)N2Cc3cc(OC)cc(OC)c3C(C)C=C2C12CCN(Cc1cccc3ncccc13)CC2` (stereo not drawn) [compound 819592] are within 1.5-fold of each other in IC50: 60 nM for the first, 86 nM for the second.

Going from `COCCN1C(=O)N2Cc3cc(OC)c(OC)c(OC)c3C(C)(C)C=C2C12CCN(Cc1cc(OC)cc(OC)c1)CC2` [compound 819701] to `COCCN1C(=O)N2Cc3cc(OC)cc(OC)c3C(C)(C)C=C2C12CCN(Cc1cc(OC)cc(OC)c1)CC2` [compound 819544], the IC50 rises from 21 nM to 35 nM (1.7-fold).

First: CCN1C(=O)N2Cc3cc(OC)cc(OC)c3C(C)C=C2C12CCN(Cc1cc(C)cc(C)c1)CC2 (racemic) [compound 819597]
Second: CCN1C(=O)N2Cc3cc(OC)cc(OC)c3C(C)C=C2C12CCN(Cc1occ(C)c1C)CC2 (stereo not drawn) [compound 819771]
The IC50 of the first is 2.3-fold lower: 90 nM for the first, 205 nM for the second. The first is the more potent here.

First: CCN1C(=O)N2Cc3cc(OC)cc(OC)c3C(C)(C)C=C2C12CCN(Cc1ccc3nc[nH]c3c1)CC2 [compound 819777]
Second: CCN1C(=O)N2Cc3cc(OC)cc(OC)c3C(C)(C)C=C2C12CCN(Cc1cccc3cnccc13)CC2 [compound 819603]
The IC50 of the first is 3.1-fold lower: 110 nM for the first, 340 nM for the second. The first is the more potent here.

First: CCN1C(=O)N2Cc3cc4c(cc3C(C)(C)C=C2C12CCN(Cc1cc(OC)cc(OC)c1)CC2)OCO4 [compound 819708]
Second: COCCN1C(=O)N2Cc3cc(OC)cc(OC)c3CC=C2C12CCN(Cc1cc(OC)cc(OC)c1)CC2 [compound 819673]
The IC50 of the first is 35-fold higher: 3600 nM for the first, 102 nM for the second. The second is the more potent here.

First: COc1cc2c(c(OC)c1)C(C)(C)C=C1N(C2)C(=O)N(C)C12CCN(Cc1ccccc1)CC2 [compound 819629]
Second: COc1cc2c(c(OC)c1)C(C)(C)C=C1N(C2)C(=O)N(CCO)C12CCN(Cc1ccccc1)CC2 [compound 819642]
The IC50 of the first is 2.3-fold higher: 840 nM for the first, 365 nM for the second. The second is the more potent here.

Going from `CCN1C(=O)N2Cc3cc(OC)cc(OC)c3C(C)C=C2C12CCN(Cc1cn(C)c3ccccc13)CC2` (stereo not drawn) [compound 819596] to `CCN1C(=O)N2Cc3cc(OC)cc(OC)c3C(C)(C)C=C2C12CCN(Cc1cn(C)c3ccccc13)CC2` [compound 819606], the IC50 rises from 720 nM to 2870 nM (4-fold). The first is the more potent here.

Compared with `COCCN1C(=O)N2Cc3cc(OC)cc(OC)c3C(C)C=C2C12CCN(Cc1cc(OC)cc(OC)c1)CC2` (stereo not drawn) [compound 819543], `CCN1C(=O)N2Cc3cc(OC)cc(OC)c3C(C)C=C2C12CCN(Cc1cccc(OC)c1OC)CC2` (stereo not drawn) [compound 819767] is 9.9-fold higher in IC50: 15 nM for the first, 148 nM for the second.

First: CCN1C(=O)N2Cc3cc(OC)cc(OC)c3C(C)C=C2C12CCN(Cc1cscc1Br)CC2 (stereo not drawn) [compound 819558]
Second: CCN1C(=O)N2Cc3cc(OC)cc(OC)c3C(C)C=C2C12CCN(Cc1cccs1)CC2 (stereo not drawn) [compound 819556]
The IC50 of the first is 4.5-fold higher: 740 nM for the first, 166 nM for the second. The second is the more potent here.

Going from `CCc1ccc(CN2CCC3(CC2)C2=CC(C)c4c(cc(OC)cc4OC)CN2C(=O)N3CC)s1` (stereo not drawn) [compound 819557] to `COCCN1C(=O)N2Cc3cc(OC)cc(OC)c3C(C)(C)C=C2C12CCN(Cc1cccc(OC)c1)CC2` [compound 819647], the IC50 falls from 510 nM to 64 nM (8-fold). The second is the more potent here.

Going from `COc1cccc(CN2CCC3(CC2)C2=CC(C)(C)c4c(cc(OC)cc4OC)CN2C(=O)N3Cc2ccccc2)c1` [compound 819649] to `COc1cc(CN2CCC3(CC2)C2=CC(C)(C)c4c(cc(OC)cc4OC)CN2C(=O)N3Cc2cccc(-n3cccc3)c2)cc(OC)c1` [compound 819590], the IC50 falls from 4940 nM to 514 nM (9.6-fold). The second is the more potent here.

Going from `COc1cc2c(c(OC)c1)C(C)(C)C=C1N(C2)C(=O)N(C)C12CCN(C/C=C/c1ccccc1)CC2` [compound 819634] to `COCCN1C(=O)N2Cc3cc(OC)cc(OC)c3C(C)(C)C=C2C12CCN(Cc1cc(OC)cc(OC)c1O)CC2` [compound 819750], the IC50 falls from 1150 nM to 41 nM (28-fold). The second is the more potent here.

Going from `COCCN1C(=O)N2Cc3cc(OC)cc(OC)c3C(C)(C)C=C2C12CCN(Cc1cc(OC)cc(OC)c1OC)CC2` [compound 819752] to `COCCN1C(=O)N2Cc3cc(OC)cc(OC)c3C(C)(C)C=C2C12CCN(Cc1cc(OC)cc(OC)c1C)CC2` [compound 819749], the IC50 falls from 71 nM to 44 nM (1.6-fold).

In the case of `COc1cc(CN2CCC3(CC2)C2=CC(C)(C)c4c(cc(OC)cc4OC)CN2C(=O)N3Cc2ccc(-n3cccn3)cc2)cc(OC)c1` [compound 819663], the IC50 is reported as 637 nM.
